Reference: patent US9539249B2, “PPAR gamma agonists for treatment of multiple sclerosis” (InteKrin Therapeutics, Inc., priority 2013, dated 2017)
“Also recorded” adds a separate entry of the source. Read-outs that look alike come from different tables or passages of the source.

Columns and labels:
[1] = Tissue distribution of [3H]INT131 after intraperitoneal injection (penetration of the intact BBB); type: in vivo, Sprague-Dawley rats; conditions: for concentration at 6 h: 6 h after ~50 mg/kg ip; for concentration at 24 h: 24 h after ~50 mg/kg ip
Method: (§1) To test whether INT131 is able to penetrate the intact BBB INT131 was radiolabeled with tritium (“[^3H]INT131”), prior to intraperitoneal injection into adult Sprague-Dawley rats. The purity of the radiolabeled INT131 was determined by high-performance liquid chromatography (HPLC) fractionation prior to injection, and again at the close of the experiment. […] The test animals were sacrificed at 1, 6 and 24 hours after injection and blood, brain, cerebrospinal fluid (“CSF”), spinal cord, kidney, liver and small bowel were harvested for determination of [^3H]INT131 content by liquid scintillography.

[2] = system: EAE; assay: EAE relapse model, INT131 treatment begun at first remission; type: in vivo, mice; conditions: for clinical course from the 22nd day following immunization: treated from day 20, vehicle animals relapsed; for relapse rate (percent of animals relapsed): 25th day post-immunization, vehicle 72 percent
Description: EAE is a well-characterized and widely used model of MS. It is one of the few animal models in which drug therapeutic activity in the model often mimics and anticipates the drug's effects in human disease. In this model, mice are immunized with well-defined antigenic fragments of central nervous system myelin, such as fragments of the proteolipid protein (PLP). Over the course of 2 to 3 weeks the immunized animals develop a clinical and histopathologic syndrome of T-cell mediated cerebral autoimmunity that is highly reminiscent of relapsing/remitting MS (RRMS). The similarities between EAE and RRMS include inflammatory cerebral infiltrated and accompanying Th1/Th17 responses to both the disease initiating myelin PLP peptide, and subsequent epitope spread, seen in disease relapse. The animals were immunized with the myelin peptide (PLP^139-151) and the spread epitope peptide (PLP^178-191) which drives disease relapse. Studies consisted of three experimental arms in which the mice were given daily ip injection of vehicle, or either 1 or 3 mg/kg/d of INT131. Following immunization, the animals underwent daily neurological evaluation by an experienced investigator. In these studies treatment began at the time of the first remission. […] Following the expected clinical disease peak at about two weeks post-immunization, symptoms began to ebb as the animals drifted into remission. All of the animals were treated with INT131 on day 20. By the 22nd day following immunization relapse began as expected, however, only in the vehicle treated animals.

[3] = system: infiltrating CD45-positive leukocytes; assay: CD45-positive leukocyte infiltration in brainstem of EAE mice treated at the peak of disease; type: in vivo
Description: Initiating INT131 treatment during remission extends the time subjects remain relapse-free, as compared to vehicle/placebo treatment. However, because there is little active neuroinflammation during remission, this paradigm is not informative about the effects of INT131 on acute neuroinflammation. To better understand the effects of INT131 on the acute inflammatory response we treated mice with EAE at the height of the clinical disease. […] INT131 treatment was begun at the peak of disease (day 20) and brainstems were harvested at day 32, and stained with αCD45 to identify infiltrating leukocytes. CD45 (also known as Leukocyte Common Antigen) is expressed on all hematopoietic cells except erythrocytes and platelets, and is required for B- and T cell-receptor-mediated activation. Thus, CD45 is critical in mediating the inflammatory process. […] These findings unify the clinical and histological findings that INT131 is a potent and effective treatment of acute neuroinflammation in this model of RRMS.

[4] = HPLC fractionation of radiolabeled INT131 before injection and at the close of the experiment; type: physicochemical; conditions: prior to injection and at the close of the experiment
Method: as §1

[5] = Sprague-Dawley, CSF, intraperitoneal, rat, read-out: INT131 concentration in CSF
[6] = Sprague-Dawley, blood, intraperitoneal, rat, read-out: INT131 concentration in Blood
[7] = Sprague-Dawley, brain, intraperitoneal, rat, read-out: INT131 concentration in Brain
[8] = Sprague-Dawley, kidney, intraperitoneal, rat, read-out: INT131 concentration in Kidney
[9] = Sprague-Dawley, liver, intraperitoneal, rat, read-out: INT131 concentration in Liver
[10] = Sprague-Dawley, small bowel, intraperitoneal, rat, read-out: INT131 concentration in Small bowel
[11] = Sprague-Dawley, spinal cord, intraperitoneal, rat, read-out: INT131 concentration in Spinal cord

O=S(=O)(Nc1cc(Cl)c(Oc2cnc3ccccc3c2)c(Cl)c1)c1ccc(Cl)cc1Cl [INT131] showed a concentration at 1 h ([1]; Sprague-Dawley, CSF, intraperitoneal, 1 h after ~50 mg/kg ip, rat, read-out: INT131 concentration in CSF) of 292 ng/g, a concentration at 6 h [1, 5] of 2860 ng/g and a concentration at 24 h [1, 5] of 5300 ng/g. It also gave a concentration at 1 h ([1]; Sprague-Dawley, blood, intraperitoneal, 1 h after ~50 mg/kg ip, rat, read-out: INT131 concentration in Blood) of 4050 ng/g, a concentration at 6 h [1, 6] of 41800 ng/g and a concentration at 24 h [1, 6] of 17900 ng/g. The concentration at 1 h ([1]; Sprague-Dawley, brain, intraperitoneal, 1 h after ~50 mg/kg ip, rat, read-out: INT131 concentration in Brain) was 569 ng/g, the concentration at 6 h [1, 7] was 5980 ng/g and the concentration at 24 h [1, 7] was 4650 ng/g. For the same molecule, the concentration at 1 h ([1]; Sprague-Dawley, kidney, intraperitoneal, 1 h after ~50 mg/kg ip, rat, read-out: INT131 concentration in Kidney) was 7730 ng/g, the concentration at 6 h [1, 8] was 32900 ng/g and the concentration at 24 h [1, 8] was 15400 ng/g. It also gave a concentration at 1 h ([1]; Sprague-Dawley, liver, intraperitoneal, 1 h after ~50 mg/kg ip, rat, read-out: INT131 concentration in Liver) of 24400 ng/g, a concentration at 6 h [1, 9] of 141000 ng/g and a concentration at 24 h [1, 9] of 36400 ng/g. For the same molecule, the Kp at 6 h ([1]; Sprague-Dawley, rat, brain and spinal cord relative to blood, intraperitoneal, 50 mg/kg, 6 hours after injection, read-out: level of INT131 in brain and spinal cord relative to the level found in blood) was about 0.1, the concentration at 1 day ([1]; Sprague-Dawley, rat, brain and spinal cord, intraperitoneal, 50 mg/kg, 1 day after injection, read-out: absolute amount of INT131 in the brain and spinal cord) was over 4000 ng/g and the concentration at 1 h ([1]; Sprague-Dawley, rat, neural compartments (brain tissue), intraperitoneal, one hour after single administration of ~50 mg/kg, read-out: average amount of INT131 in the neural compartments) was under 500 ng/g. It also gave a Kp at 24 h ([1]; Sprague-Dawley, rat, neural tissues relative to circulation (blood), intraperitoneal, 50 mg/kg, 24 hours after injection, read-out: level of INT131 in neural tissues relative to that found in the circulation) of 0.25, a concentration at 1 h ([1]; Sprague-Dawley, small bowel, intraperitoneal, 1 h after ~50 mg/kg ip, rat, read-out: INT131 concentration in Small bowel) of 19700 ng/g and a concentration at 6 h [1, 10] of 223000 ng/g. The concentration at 24 h [1, 10] was 34500 ng/g, the concentration at 1 h ([1]; Sprague-Dawley, spinal cord, intraperitoneal, 1 h after ~50 mg/kg ip, rat, read-out: INT131 concentration in Spinal cord) was 478 ng/g and the concentration at 6 h [1, 11] was 4810 ng/g. The concentration at 24 h [1, 11] was 4310 ng/g, the “increase of the amount of INT131 in the neural tissues versus 1 hour” value ([1]; at 6 and 24 hours) was “approximately 10 fold” and the “amount in neural compartments, fold less than that found in the circulation” value ([1]; one hour after single administration of ~50 mg/kg) was “approximately 10 fold”. For the same molecule, the “clinical course from the 22nd day following immunization” value ([2]; 1 mg/kg) was “continued to improve slightly”, the “relapse rate (percent of animals relapsed)” value ([2]; 1 mg/kg/d ip) was 9% and the “clinical course from the 22nd day following immunization” value ([2]; 3 mg/kg) was “remained stable”. For the same molecule, the “relapse rate (percent of animals relapsed)” value ([2]; 3 mg/kg/d ip) was 16%, the “disease burden among treated animals that relapse” value ([2]; in comparison to vehicle treated mice) was “exceptionally mild” and the “symptoms of animals with EAE” value ([2]; mouse, in vivo) was “becoming and remaining mostly symptom-free”. The effect on relapse ([2]; treatment begun at first remission) was “virtually blocks relapse”, the clinical symptoms ([3]; treatment at the height of clinical disease) was “rapid improvement in clinical symptoms” and the “infiltrating CD45-positive leukocytes in brainstem” value ([3]; treatment from day 20 (peak of disease), brainstems harvested day 32, either concentration, compared to vehicle) was “paucity of infiltrating CD45-positive leukocytes; also recorded: paucity of infiltrating white cells”.
For O=S(=O)(Nc1cc(Cl)c(Oc2cnc3ccccc3c2)c(Cl)c1)c1ccc(Cl)cc1Cl [[^3H]INT131], the “stability of radiolabeled material over the course of the study (HPLC)” value [4] was “virtually all of the radiolabeled material was found in a single peak”.
